For this series, the target named is T1, hERG (Homo sapiens, UniProt Q12809).
T1 construct: expressed in transfected cells; host or cells: HEK293
Kind of series: Tl+-flux assay in HEK-293 cells, hERG. Particulars: HEK293 cells stably expressing hERG, pH 7.3, 10 µM test compound, relative to control bepridil, read-out: Percent Inhibition ± SEM, hERG. The format is cell-based. From the text:
Having executed our plan to prepare analogs across the identified regions of the chemotype (Figure 2), we identified two analogs for further profiling and evaluation. […] Desiring to add a second compound with some measure of structural differences, we also chose another submicromolar SLACK inhibitor 66 (VU0936154). Whereas 40 contains an ether linker and a halogenated phenyl group in the eastern region, […] contains an N-methyl linker and a phenyl group with a more polar cyano substituent. We first screened these analogs at 10 µM versus our in-house panel of ion channel targets using Tl^+-flux assays in HEK-293 cells expressing the human target of interest. […] Included in this set are Slo family members SLICK and two isoforms of Maxi-K, as well as several different K^+, Na^+, and Ca^2+ channels (Table 6). […] Of note was the excellent selectivity versus the broader panel of targets for both compounds, including versus the hERG channel.
Stably transfected monoclonal HEK293 cell lines expressing SLICK, Maxi-K α1/β3, Maxi-K α1/β4, CaV3.2, GIRK 1/2, KV2.1, KV7.2, NaV1.7, and TASK-1 were generated as previously described. […]
The Tl^+ flux assays were conducted as previously described, with modifications optimized for individual cell lines as described below. […] Cell plates were then loaded onto a Panoptic kinetic imaging plate reader (WaveFront Biosciences, Franklin, TN, USA). […]

T1 sequence (Q12809 whole entry): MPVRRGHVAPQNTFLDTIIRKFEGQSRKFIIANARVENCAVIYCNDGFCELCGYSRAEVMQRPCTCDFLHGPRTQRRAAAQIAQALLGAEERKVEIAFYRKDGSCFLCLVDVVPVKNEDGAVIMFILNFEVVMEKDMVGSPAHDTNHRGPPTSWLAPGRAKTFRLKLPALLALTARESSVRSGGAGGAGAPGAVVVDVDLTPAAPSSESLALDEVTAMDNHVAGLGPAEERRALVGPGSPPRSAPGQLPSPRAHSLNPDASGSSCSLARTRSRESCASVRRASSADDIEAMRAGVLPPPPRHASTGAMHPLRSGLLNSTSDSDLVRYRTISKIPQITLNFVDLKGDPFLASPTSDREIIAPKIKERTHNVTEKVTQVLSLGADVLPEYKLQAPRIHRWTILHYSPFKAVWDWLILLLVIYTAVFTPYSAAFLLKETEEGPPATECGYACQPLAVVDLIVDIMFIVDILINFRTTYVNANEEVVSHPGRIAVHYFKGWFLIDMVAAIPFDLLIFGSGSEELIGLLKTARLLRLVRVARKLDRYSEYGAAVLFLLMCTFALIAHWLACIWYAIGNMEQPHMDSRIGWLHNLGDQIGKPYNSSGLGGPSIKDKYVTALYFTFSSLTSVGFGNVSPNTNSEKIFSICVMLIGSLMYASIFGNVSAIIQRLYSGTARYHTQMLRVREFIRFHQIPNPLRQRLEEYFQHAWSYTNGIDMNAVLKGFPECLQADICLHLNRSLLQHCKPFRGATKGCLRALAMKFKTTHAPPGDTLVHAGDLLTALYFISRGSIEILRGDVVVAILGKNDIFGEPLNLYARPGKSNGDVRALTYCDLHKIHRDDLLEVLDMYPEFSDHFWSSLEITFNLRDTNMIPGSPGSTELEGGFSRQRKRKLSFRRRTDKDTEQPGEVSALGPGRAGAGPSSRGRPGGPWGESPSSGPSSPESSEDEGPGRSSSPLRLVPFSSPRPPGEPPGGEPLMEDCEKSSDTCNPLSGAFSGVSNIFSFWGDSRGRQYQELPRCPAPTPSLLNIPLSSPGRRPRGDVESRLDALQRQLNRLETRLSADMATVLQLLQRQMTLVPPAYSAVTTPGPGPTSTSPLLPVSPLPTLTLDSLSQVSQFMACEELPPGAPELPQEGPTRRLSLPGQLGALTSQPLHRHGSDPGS

What is called inhibition is the percentage by which the read-out fell short of the control. `CC(C)(Oc1ccc(Cl)cc1)C(=O)Nc1cnc(Oc2c(F)cccc2F)nc1` [Analog 40]: the inhibition at 120 s, 10 µM turned out to be 0.9 ± 2.9%.
For `CN(c1ccc(C#N)cc1)c1ncc(NC(=O)C(C)(C)Oc2ccc(Cl)cc2)cn1` [Analog 66] the value was 13 ± 3.3%.

The values are drawn from publication PMC11643494, “Structure–Activity Relationship Studies in a Series of 2-Aryloxy-N-(pyrimidin-5-yl)acetamide Inhibitors of SLACK Potassium Channels” (Molecules, 2024).
